Values of other authors in patent US20030099725A1, “Herbal compositions useful as chemopreventive and therapeutic agents and methods of manufacturing same” (priority 2001, published 2003).

Tested on: women at high risk of breast cancer

CC/C(=C(\c1ccccc1)c1ccc(OCCN(C)C)cc1)c1ccccc1 [Tamoxifen]
decrease in invasive cancer versus placebo: 49% | decrease in non-invasive breast cancer versus placebo: 50%
